The text below walks through data of patent publication US20260070911A1, “INHIBITORS OF TAM RECEPTORS” (National Health Research Institutes, priority 2022, published 2026).

Some results are limits rather than exact numbers.

Type in all cases: biochemical
One assay has as its target T1, MERTK (Homo sapiens, UniProt Q12866).
T1 sequence (Q12866 21-999): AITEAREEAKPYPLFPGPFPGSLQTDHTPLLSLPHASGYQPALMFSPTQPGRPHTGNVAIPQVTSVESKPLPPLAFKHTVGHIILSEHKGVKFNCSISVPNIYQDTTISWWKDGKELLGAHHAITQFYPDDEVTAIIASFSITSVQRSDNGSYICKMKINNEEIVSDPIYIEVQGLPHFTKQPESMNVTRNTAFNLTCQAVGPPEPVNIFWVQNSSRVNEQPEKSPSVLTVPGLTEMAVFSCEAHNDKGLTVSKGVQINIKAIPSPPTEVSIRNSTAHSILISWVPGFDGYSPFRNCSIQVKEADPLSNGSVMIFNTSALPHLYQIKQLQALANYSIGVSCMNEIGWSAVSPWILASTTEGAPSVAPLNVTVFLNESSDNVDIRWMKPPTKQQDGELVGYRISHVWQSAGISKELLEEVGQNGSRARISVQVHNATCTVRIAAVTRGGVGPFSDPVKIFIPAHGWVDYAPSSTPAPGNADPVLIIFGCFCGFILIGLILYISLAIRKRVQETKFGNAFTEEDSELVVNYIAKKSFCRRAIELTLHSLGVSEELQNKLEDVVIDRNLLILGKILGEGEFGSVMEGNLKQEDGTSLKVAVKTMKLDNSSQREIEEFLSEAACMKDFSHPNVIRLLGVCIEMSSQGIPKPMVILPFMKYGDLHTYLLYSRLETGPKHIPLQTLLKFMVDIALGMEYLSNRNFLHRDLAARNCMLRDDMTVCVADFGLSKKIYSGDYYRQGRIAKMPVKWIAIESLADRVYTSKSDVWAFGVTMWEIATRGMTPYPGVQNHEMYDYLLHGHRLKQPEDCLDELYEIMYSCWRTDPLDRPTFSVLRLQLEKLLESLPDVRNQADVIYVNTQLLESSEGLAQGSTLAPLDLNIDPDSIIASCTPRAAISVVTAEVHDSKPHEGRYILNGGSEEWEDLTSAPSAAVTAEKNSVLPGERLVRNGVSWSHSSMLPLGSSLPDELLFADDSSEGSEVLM
In words: MERTK enzymatic assay (Kinase Glo). Conditions: purified kinase, ATP 12 μM, read-out: MER Enzymatic Inhibition (%). The procedure: (§1) A purified kinase (AXL or MERTK) was incubated with a compound or DMSO (control) for 15 minutes in an assay buffer (25 mM Tri s pH 7.4, 10 mM MgCl2, 4 mM MnCl2, 2 mM DTT, 0.0100 BSA, 0.02% TritonX-100, 0.0100 Brij35 and 0.5 mM Na3VO4 for MERTK; and 40 mM Tri s pH 7.4, 20 mM MgCl2, 2 mM DTT, 0.01% BSA and 0.5 mM Na3VO4 for AXL). […] The mixture was incubated for 3 hours at 30° C. The luminescence was calculated to determine the kinase activity using a Kinase Glo assay kit for MERTK and an ADP-Glo Kinase Assay kit for AXL following the manufacture's instructions (Promega Corp., Madison, Wisconsin).
(§2) A study was conducted to compare exemplary compounds of formula (I) in inhibiting TAM activities, including MERTK, AXL, and TYRO3. An enzymatic assay was used in the study. A purified Kinase (i.e., MERTK, AXL, or TYRO3) was incubated with a compound or DMSO (control) for around 15 minutes in an assay buffer (25 mM Tris pH 7.4, 10 mM MgCl2, 4 mM MnCl2, 2 mM DTT, 0.01% BSA, 0.02% TritonX-100, 0.01% Brij35 and 0.5 mM Na3VO4 for MERTK; 40 mM Tris pH 7.4, 20 mM MgCl2, 2 mM DTT, 0.01% BSA and 0.5 mM Na3VO4 for AXL; and 25 mM Tris pH 7.4, 10 mM MgCl2, 4 mM MnCl2, 2 mM DTT, 0.01% BSA and 0.5 mM Na3VO4 for TYRO3). […] The mixture was incubated for 3 hours at 30° C. The luminescence was calculated to determine the kinase activity using a Kinase Glo assay kit for MERTK and an ADP-Glo Kinase assay kit for AXL and TYRO3 following the manufacture's instructions (Promega). Inhibition rates and half maximal inhibitory concentration (IC50) values were calculated. High percentage inhibition rates and low IC50 values are indicatives of high potency of the test compound.
In general terms: Kinase-Glo reads ATP consumption through a luciferase reaction.

In a further assay the target is T2, AXL (Homo sapiens, UniProt P30530).
T2 sequence (P30530 26-894): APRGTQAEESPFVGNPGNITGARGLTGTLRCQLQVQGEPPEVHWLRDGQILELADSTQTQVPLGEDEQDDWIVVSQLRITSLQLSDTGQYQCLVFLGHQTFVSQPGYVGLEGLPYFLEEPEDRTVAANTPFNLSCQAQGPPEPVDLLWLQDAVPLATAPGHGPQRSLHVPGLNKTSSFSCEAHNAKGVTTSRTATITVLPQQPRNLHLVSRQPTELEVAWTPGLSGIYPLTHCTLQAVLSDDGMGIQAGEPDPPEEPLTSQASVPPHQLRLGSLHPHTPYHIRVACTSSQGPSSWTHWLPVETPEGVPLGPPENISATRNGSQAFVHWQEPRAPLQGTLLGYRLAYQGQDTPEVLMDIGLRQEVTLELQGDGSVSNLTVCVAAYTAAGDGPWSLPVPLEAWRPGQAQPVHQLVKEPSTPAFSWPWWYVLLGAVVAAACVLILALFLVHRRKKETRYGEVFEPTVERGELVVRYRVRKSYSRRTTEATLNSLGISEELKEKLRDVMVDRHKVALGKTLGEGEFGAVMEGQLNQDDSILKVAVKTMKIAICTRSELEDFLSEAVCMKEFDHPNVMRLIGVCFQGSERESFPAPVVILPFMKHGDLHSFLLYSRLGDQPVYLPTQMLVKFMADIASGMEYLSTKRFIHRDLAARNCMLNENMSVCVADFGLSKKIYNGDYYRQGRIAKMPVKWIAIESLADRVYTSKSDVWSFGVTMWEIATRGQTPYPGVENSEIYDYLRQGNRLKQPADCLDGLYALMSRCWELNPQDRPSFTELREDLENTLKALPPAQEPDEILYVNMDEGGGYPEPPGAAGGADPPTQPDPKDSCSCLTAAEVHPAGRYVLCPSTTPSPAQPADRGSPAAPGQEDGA
Description: AXL enzymatic assay (ADP-Glo). To be noted: purified kinase, ATP 50 μM, read-out: AXL Enzymatic Inhibition (%). The procedure:
as §1, §2
On the technique in general: ADP-Glo first removes unused ATP, then detects ADP through luciferase.

Another assay relates to MER/AXL. Description: Dual MER/AXL inhibition (enzymatic). Conditions: class for both MER and AXL. The procedure: as §1

As to `CC(=O)Nc1cccc(-c2c(C)oc3ncnc(Oc4ccc(NC(=O)c5cccn(-c6ccc(F)cc6)c5=O)cc4)c23)c1` [Compound 50], the IC50 was 100 to 50000 nM at MERTK, 20 to 100 nM on AXL and 100 to 50000 nM with MER/AXL.
In the case of `O=C(Nc1ccc(Oc2nc(Cl)nc3[nH]ccc23)cc1)c1cccn(-c2ccc(F)cc2)c1=O` [Compound 5], the IC50 at MERTK, on AXL and in the assay with MER/AXL was 100 to 50000 nM each time.
With `CC(=O)Nc1cccc(-c2c(-c3cnn(C)c3)oc3ncnc(Oc4ccc(NC(=O)c5cc6c(n(-c7ccccc7)c5=O)CCCC6=O)cc4)c23)c1` [Compound 62], the figures for the IC50 at MERTK, at AXL and with MER/AXL were 100 to 50000 nM, under 20 nM and 100 to 50000 nM, respectively.
For `CC(=O)Nc1cccc(-c2c(-c3cnn(C)c3)oc3ncnc(Oc4ccc(NC(=O)c5ccc(-c6ccc(F)cc6)o5)cc4)c23)c1` [Compound 118], the IC50 on MERTK, on AXL and with MER/AXL was 100 to 50000 nM in each case.
As for `O=C(Nc1ccc(Oc2ncnc3[nH]cc(C#Cc4ccccc4)c23)cc1)c1cccn(-c2ccc(F)cc2)c1=O` [Compound 18], the IC50 on MERTK was 100 to 50000 nM; on AXL, under 20 nM; in the assay with MER/AXL, 100 to 50000 nM.
Consider `Cc1ccn(-c2ccc(F)cc2)c(=O)c1C(=O)Nc1ccc(Oc2ncnc3oc(-c4cnn(C)c4)c(-c4cccc(N)c4)c23)cc1` [Compound 71], for which the IC50 at MERTK, at AXL and in the assay with MER/AXL was under 20 nM throughout.
Regarding `Cn1cc(-c2oc3ncnc(Oc4ccc(NC(=O)c5cc6c(n(-c7ccc(F)cc7)c5=O)CCCC6=O)cc4)c3c2-c2cccc(N)c2)cn1` [Compound 68], the values for the IC50 on MERTK, at AXL and with MER/AXL were 20 to 100 nM, under 20 nM and 20 to 100 nM, respectively.
Consider `Cn1cc(-c2oc3ncnc(Oc4ccc(NC(=O)c5cccn(C)c5=O)cc4)c3c2-c2cccc(N)c2)cn1` [Compound 66], for which the IC50 on MERTK, on AXL and in the assay on MER/AXL was 100 to 50000 nM each time.
Take `CC(=O)Nc1cccc(-c2c(-c3cnn(C)c3)oc3ncnc(Oc4ccc(NC(=O)c5ccc(-c6cccc(F)c6)o5)cc4)c23)c1` [Compound 120]: the IC50 on MERTK, at AXL and with MER/AXL was 100 to 50000 nM throughout.
Consider `Cn1cc(-c2oc3ncnc(Oc4ccc(NC(=O)c5cn(C)n(-c6ccc(F)cc6)c5=O)cc4)c3c2-c2cccc(N3CCCCC3=O)c2)cn1` [Compound 176], for which the IC50 at MERTK, on AXL and in the assay with MER/AXL was 100 to 50000 nM throughout.
Consider `Cn1cc(-c2oc3ncnc(Oc4ccc(NC(=O)c5cccn(-c6ccc(F)cc6)c5=O)cc4)c3c2-c2ccc(N3CCNCC3)cc2)cn1` [Compound 32], for which the IC50 on MERTK, at AXL and in the assay on MER/AXL was under 20 nM each time.
Turning to `Cn1cc(-c2oc3ncnc(Oc4ccc(NC(=O)c5cccn(-c6ccc(F)cc6)c5=O)cc4)c3c2-c2cccnc2)cn1` [Compound 31], the IC50 at MERTK is 100 to 50000 nM; on AXL, under 20 nM; with MER/AXL, 100 to 50000 nM.
Regarding `Cn1cc(-c2oc3ncnc(Oc4ccc(NC(=O)c5cccn(-c6ccc(F)nc6)c5=O)cc4)c3c2-c2cccc(N)c2)cn1` [Compound 80], the figures for the IC50 on MERTK, on AXL and with MER/AXL were 20 to 100 nM, under 20 nM and 20 to 100 nM, respectively.
With `Cc1cc(F)ccc1-n1cccc(C(=O)Nc2ccc(Oc3ncnc4oc(-c5cnn(C)c5)c(-c5cccc(CN(C)C)c5)c34)cc2)c1=O` [Compound 98], the IC50 was 20 to 100 nM on MERTK, under 20 nM at AXL and 20 to 100 nM in the assay on MER/AXL.
With `COc1nn(-c2ccc(C)cc2)cc1C(=O)Nc1ccc(Oc2ncnc3oc(-c4cnn(C)c4)c(-c4cccc(N)c4)c23)cc1` [Compound 136], the IC50 at MERTK, at AXL and with MER/AXL was 100 to 50000 nM throughout.
Regarding `CC(=O)Nc1cccc(-c2c(-c3cnn(C)c3)oc3ncnc(Oc4ccc(NC(=O)c5ccc(C)n(-c6ccc(F)cc6)c5=O)cc4)c23)c1` [Compound 70], the IC50 at MERTK, at AXL and in the assay with MER/AXL was under 20 nM in each case.
In the case of `CN(C)c1cccc(-c2c[nH]c3ncnc(Oc4ccc(NC(=O)c5cccn(-c6ccc(F)cc6)c5=O)cc4)c23)c1` [Compound 21], the IC50 at MERTK, on AXL and in the assay on MER/AXL was 100 to 50000 nM each time.
As to `CCNc1cccc(-c2c(-c3cnn(C)c3)oc3ncnc(Oc4ccc(NC(=O)c5cn(C)n(-c6ccc(F)cc6)c5=O)cc4)c23)c1` [Compound 178], the values for the IC50 at MERTK, at AXL and with MER/AXL were 100 to 50000 nM, under 20 nM and 100 to 50000 nM, respectively.
Regarding `CC(=O)Nc1cccc(-c2c(-c3cnn(C)c3)oc3ncnc(Oc4ccc(NC(=O)c5cccn(-c6ccc(F)cc6)c5=O)nc4)c23)c1` [Compound 53], the IC50 at MERTK, on AXL and in the assay with MER/AXL was 20 to 100 nM in each case.
Take `Cn1cc(-c2oc3ncnc(Oc4ccc(NC(=O)c5cn(C)n(-c6ccc(F)cc6)c5=O)cc4)c3c2-c2cccc(CN3CCOCC3)c2)cn1` [Compound 127]: the IC50 was 100 to 50000 nM at MERTK, under 20 nM on AXL and 100 to 50000 nM with MER/AXL.
Regarding `CNc1cccc(-c2c[nH]c3ncnc(Oc4ccc(NC(=O)c5cccn(-c6ccc(F)cc6)c5=O)cc4)c23)c1` [Compound 22], the IC50 fell in the range of 100 to 50000 nM at MERTK, 20 to 100 nM at AXL and 100 to 50000 nM in the assay on MER/AXL.
For `Cn1cc(-c2oc3ncnc(Oc4ccc(NC(=O)c5cccn(-c6ccc(F)cc6)c5=O)cc4)c3c2-c2cccc(NS(C)(=O)=O)c2)cn1` [Compound 60], the IC50 on MERTK is 20 to 100 nM; at AXL, under 20 nM; with MER/AXL it was 20 to 100 nM.
